Where a name gives a salt, the structure may show the parent alone.
Tests used:
Format in all cases: physicochemical
[1] = Fluorescence observed by infrared ray microscope on cotton gauze thread, with or without sodium distearoylphosphatidate/octyl glucoside solution (Example 1); parameters: key: +++: Definitely bright; ++: Bright.; +: Observable; ±: Slightly observable; conditions: for Fluorescence intensity, No addition group: no DSPA/OG solution; for Fluorescence intensity, Addition group: sodium distearoylphosphatidate + octyl glucoside solution added
Procedure: Octyl glucoside (Dojindo Laboratories, 880 mg) was carefully added to phosphate buffered saline (10 ml, pH 7.4) and dissolved with stirring on a water bath at 40° C. Sodium distearoylphosphatidate (148.8 mg) was added to the resulting solution and dissolved with stirring over a water bath at 60° C., and then the solution was added with phosphate buffered saline up to a final volume of 20 ml. The solution was returned to room temperature and stored as frozen aliquots of 1 ml volume before use. The final concentrations of sodium distearoylphosphatidate and octyl glucoside in the solution were 10 mM and 150 mM, respectively.
The above diagnosis marker (54 μg) in the lyophilized state was added with 10% (v/v) dimethyl sulfoxide (DMSO)/phosphate buffered saline (20 μl, pH 7.4) and dissolved. The above solution of sodium distearoylphosphatidate and octyl glucoside (5 μl) was added to 5 μl of the resulting solution, which was warmed beforehand, and mixed by repeating careful suction and ejection using a micropipette to obtain a composition of the present invention in the form of an aqueous solution. By using an indocyanine green (ICG) solution, ICC-sulfo-OSu solution, and water (control) instead of the solution of the diagnosis marker, aqueous compositions were prepared in the same manner as described above.
BHSM-IR (Olympus Optical) was used as an infrared ray microscope that allows observation in visible light to near infrared light region. The microscope was equipped with an excitation light transmitting filter that transmits lights of 710-790 nm (Asahi Bunko) under the sample, and with an excitation light cutting filter that transmits lights of 810-920 nm (Asahi Bunko) over the sample. KP-MI from Hitachi Electronic Engineering was used as a CCD, and fluorescence caught by the CCD was taken into an image collecting apparatus (EVIP-230, Olympus Optical), and recorded in an image recording apparatus (S321S, Olympus Optical) via an amplification system (Olympus Optical).
5 μl of each of the samples was dropped onto a cotton gauze thread (1 cm) placed on an object glass, and images were observed under irradiation by ordinary light and infrared light using the above optical system. […] The recorded images were converted into final images through an image processing comprising the steps of integration of an original image, integration of a background image, formation of a subtraction image, formation of a filtering image, and contrast enhancement by using the above-mentioned apparatus. […] In the table, all of the concentrations indicate those calculated based on ICG concentration. […] In the figure, (a) represents the result obtained under irradiation of ordinary light, and (b) represents the result obtained under irradiation of infrared ray.

[2] = Fluorescence intensity enhancing effect versus octyl glucoside concentration (Example 3); conditions: for Fluorescence intensity (standard): 1 ppm, λex=251 nm, λem=450 nm; for Fluorescence wavelength / Fluorescence intensity: excitation 768 nm; for Fluorescence intensity: labeled anti-mucin antibody 83.3 nM, 50° C.
Procedure: The final antibody concentration in the diagnostic markers was 83.3 nM, and the IOG-sulfo-OSu concentration was 1.33 μM. Fluorescence spectra of the samples were measured in the same manner as in Example 2. The slit width was 2 nm for each of excitation light and fluorescence.

[3] = Fluorescence spectrum of compositions of ICG-sulfo-OSu-labeled mouse anti-mucin antibody with fluorescence intensity enhancing agents (Example 2); conditions: 1 ppm, λex=255 nm, λem=451 nm
Procedure: The above diagnostic marker in the form of lyophilized product obtained from the mouse anti-mucin antibody (100 μg) was added with 4.0 ml of phosphate buffered saline and dissolved. 1.5 ml of the resulting solution was added with 1.5 ml of a solution of the fluorescence intensity enhancing agent of the present invention, and then the mixture was warmed over a water bath at 50° C. to prepare a final sample. As a control, a solution was prepared in the same manner by adding 1.5 ml of phosphate buffered saline. The final antibody concentration in the diagnostic marker was 83.3 nM, and the ICG-sulfo-OSu concentration was 1.33 μM. Fluorescence spectrum of each sample was measured by using a Hitachi spectrophotometer 650-40. The slit width was 5 nm for each of excitation light and fluorescence.

[4] = before the spectrum measurement

For CC1(C)C(/C=C/C=C/C=C/C=C2\N(CCCCS(=O)(=O)O)c3ccc4ccccc4c3C2(C)C)=[N+](CCCCS(=O)(=O)[O-])c2ccc3ccccc3c21 [ICC, indocyanine green], the “Fluorescence intensity, No addition group” value ([1]; 1 mg/ml in terms of ICG, fluorescence at 800 nm or more) was “++” and the “Fluorescence intensity, Addition group” value ([1]; 1 mg/ml in terms of ICG) was “++”.

In the case of CC1(C)C(/C=C/C=C/C=C/C=C2\N(CCCCS(=O)(=O)[O-])c3ccc4ccccc4c3C2(C)C)=[N+](CCCCCC(=O)ON2C(=O)CC(S(=O)(=O)[O-])C2=O)c2ccc3ccccc3c21.[Na+] (stereo not drawn) [ICG-sulfo-OSu, indocyanine green-N-hydroxysulfosuccinimide ester], the “Fluorescence intensity, No addition group” value ([1]; 10 μg/ml in terms of ICG) is reported as “+”, the “Fluorescence intensity, Addition group” value ([1]; 10 μg/ml in terms of ICG) is reported as “+” and the “Fluorescence intensity, No addition group” value ([1]; 100 μg/ml in terms of ICG) is reported as “±”. For the same compound, the “Fluorescence intensity, Addition group” value ([1]; 100 μg/ml in terms of ICG) was “++”.

For C=C[C@H]1C[N@@]2CC[C@H]1C[C@H]2[C@H](O)c1ccnc2ccc(OC)cc12 [quinine sulfate, reference compound], the “Fluorescence intensity (standard)” value ([2]; after the spectrum measurement) was 96.0, the “Fluorescence intensity (standard)” value [2, 4] was 100.0 and the “Fluorescence intensity (standard)” value ([3]; after the spectrum measurement) was 69.5. The “Fluorescence intensity (standard)” value [3, 4] was 68.0.

With CCCCCCCCO[C@@H]1O[C@H](CO)[C@@H](O)[C@H](O)[C@H]1O [OG, octyl glucoside] the “shift of fluorescence wavelength to a longer wavelength region versus octyl glucoside concentration” value ([2]; ICG-sulfo-OSu labeled anti-mucin antibody) was “sharp increases were observed at concentrations near the critical micelle concentration”, the “dependence of fluorescence intensity on octyl glucoside concentration” value ([2]; ICG-sulfo-OSu labeled anti-mucin antibody, critical micelle concentration 25 mM) was “Sharp increases of fluorescence intensity were observed at concentrations near the critical micelle concentration” and the Fluorescence wavelength ([2]; OG 1.0 mM) was 806 nm. The Fluorescence intensity ([2]; OG 1.0 mM) was 0.150, the Fluorescence wavelength ([2]; OG 1.50 mM) was 821 nm and the Fluorescence intensity ([2]; OG 1.50 mM) was 0.588. For the same compound, the Fluorescence wavelength ([2]; OG 5.0 mM) was 804 nm, the Fluorescence intensity ([2]; OG 5.0 mM) was 0.150 and the Fluorescence wavelength ([2]; OG 10.0 mM) was 809 nm. For the same compound, the Fluorescence intensity ([2]; OG 10.0 mM) was 0.189, the Fluorescence wavelength ([2]; OG 20.0 mM) was 817 nm and the Fluorescence intensity ([2]; OG 20.0 mM) was 0.436. The Fluorescence wavelength ([2]; OG 37.5 mM) was 817 nm, the Fluorescence intensity ([2]; OG 37.5 mM) was 0.520 and the Fluorescence wavelength ([2]; OG 50.0 mM) was 820 nm. For the same compound, the Fluorescence intensity ([2]; OG 50.0 mM) was 0.515, the Fluorescence wavelength ([2]; OG 75.0 mM) was 816 nm and the Fluorescence intensity ([2]; OG 75.0 mM) was 0.525. For the same compound, the Fluorescence wavelength ([2]; OG 100 mM) was 816 nm and the Fluorescence intensity ([2]; OG 100 mM) was 0.600.

Reference: US20020028474A1, “Composition for immunohistochemical staining” (DAIICHI PURE CHEMICAL CO., LTD., priority 1996, published 2002)
